Like-named read-outs stand apart in the source and are kept apart here.
Legend:
Human α4β2 = target: T1, Human α4β2 (Homo sapiens, UniProt P17787+P43681); experiment: Competition binding to receptors in membrane preparations, human α4β2 ([3H]-nicotine)
T1 construct: expressed in transfected cells; obtained from Dr. Ron Lukas, Barrow Neurological Institute
Method: (§1) SH-EP1/human α4β2 (Eaton et al., 2003), SH-EP1/human α4β4 (Gentry et al., 2003), SH-EP1/α6β3β4α5 (Grinevich et al., 2005), TE671/RD and SH-SY5Y cell lines (obtained from Dr. Ron Lukas, Barrow Neurological Institute) were maintained in proliferative growth phase in Dulbecco's modified Eagle's medium (Gibco/BRL) with 10% horse serum (Gibco BRL), 5% fetal bovine serum (HyClone, Logan Utah), 1 mM sodium pyruvate, 4 mM L-glutamine. For maintenance of stable transfectants, the α4β2 and α4β4 cell media was supplemented with 0.25 mg/mL zeocin and 0.13 mg/mL hygromycin B. Selection was maintained for the α6β3β4α5 cells with 0.25 mg/mL of zeocin, 0.13 mg/mL of hygromycin B, 0.4 mg/mL of geneticin, and 0.2 mg/mL of blasticidin. HEK/human α7/RIC3 cells (obtained from J. Lindstrom, U. Pennsylvania) were maintained in proliferative growth phase in Dulbecco's modified Eagle's medium (Gibco/BRL) with 10% fetal bovine serum (HyClone, Logan Utah), 1 mM sodium pyruvate, 4 mM L-glutamine, 0.4 mg/mL geneticin; 0.2 mg/ml hygromycin B.
(§2) Cells were harvested in ice-cold PBS, pH 7.4, then homogenized with a polytron (Brinkmann Instruments, Westbury, N.Y.). Homongenates were centrifuged at 40,000 g for 20 minutes (4° C.). The pellet was resuspended in PBS and protein concentration determined using the Pierce BCA Protein Assay kit (Pierce Biotechnology, Rockford, Ill.).
(§3) Binding to nicotinic receptors was assayed on membranes using standard methods adapted from published procedures (Lippiello and Fernandes, 1986; Davies et al., 1999). In brief, membranes were reconstituted from frozen stocks (approximately 0.2 mg protein) and incubated for 2 h on ice in […] assay buffer (PBS) in the presence of competitor compound (0.001 nM to […]) and radioligand. [^3H]-nicotine (L-(−)-[N-methyl-3H]-nicotine, 69.5 Ci/mmol, Perkin-Elmer Life Sciences) was used for human α4β2 binding studies. [^3H]-epibatidine (52 Ci/mmol, Perkin-Elmer Life Sciences) was used for binding studies at the other receptor subtypes. Incubation was terminated by rapid filtration on a multimanifold tissue harvester (Brandel, Gaithersburg, Md.) using GF/B filters presoaked in 0.33% polyethyleneimine (w/v) to reduce non-specific binding. Filters were washed 3 times and the radioactivity retained was determined by liquid scintillation counting.
(§4) Binding data were expressed as percent total control binding. Replicates for each point were averaged and plotted against the log of drug concentration. The IC50 (concentration of the compound that produces 50% inhibition of binding) was determined by least squares non-linear regression using GraphPad Prism software (GraphPAD, San Diego, Calif.). Ki was calculated using the Cheng-Prusoff equation (Cheng and Prusoff, 1973).

Human Ganglion = target: T2, Human Ganglion (Homo sapiens, UniProt P30926+P32297); experiment: Competition binding to receptors in membrane preparations, human ganglion subtype ([3H]-epibatidine)
T2 construct: endogenous in cells
Method: as §1, §2, §3, §4

Rat Ganglion = Rat Ganglion (Rattus norvegicus, UniProt P04757+P12392); experiment: Competition binding to receptors in membrane preparations, rat ganglion subtype ([3H]-epibatidine)
Method: as §3, §4

Human α7 nAChR = target: T3, Human α7 nAChR (Homo sapiens, UniProt P36544); experiment: Competition binding to receptors in membrane preparations, human α7 ([3H]-epibatidine)
T3 construct: expressed in transfected cells; host or cells: HEK cells co-expressing RIC3 (from J. Lindstrom, U. Pennsylvania)
Method: as §1, §2, §3, §4

| Compound | Ki (Human α4β2; read-out: Human α4β2 Ki) | Ki (Human Ganglion) | Ki (Rat Ganglion) | Ki (Human Ganglion; read-out: Human Ganglion Ki) | Ki (Human α7 nAChR) | Ki (Human α4β2) |
| --- | --- | --- | --- | --- | --- | --- |
| CN[C@@H](C)C/C=C/c1cncc(O[C@H]2CCN(C(C)=O)C2)c1 | 0.012 µM |  |  |  |  |  |
| CCC(=O)N1CC[C@H](Oc2cncc(/C=C/C[C@H](C)NC)c2)C1 | 0.0097 µM | 43 µM | 40 µM |  |  |  |
| CN[C@@H](C)C/C=C/c1cncc(O[C@H]2CCN(C(=O)C3CCOCC3)C2)c1 | 0.013 µM | 100 µM | 51 µM |  |  |  |
| CN[C@@H](C)C/C=C/c1cncc(O[C@@H]2CCN(C(C)=O)C2)c1 | 0.0026 µM | 41 µM | 24 µM |  |  |  |
| CCC(=O)N1CC[C@@H](Oc2cncc(/C=C/C[C@H](C)NC)c2)C1 | 0.0019 µM | 19 µM | 88 µM |  |  |  |
| CN[C@@H](C)C/C=C/c1cncc(O[C@@H]2CCN(C(=O)C3CCOCC3)C2)c1 | 0.0044 µM | 44 µM |  |  |  |  |
| CCC(=O)N1CC(Oc2cncc(/C=C/C[C@H](C)NC)c2)C1 | 0.0022 µM |  |  |  |  |  |
| CN[C@@H](C)C/C=C/c1cncc(OC2CN(C(=O)C3CCOCC3)C2)c1 | 0.0048 µM |  |  |  |  |  |
| CN[C@@H](C)C/C=C/c1cncc(O[C@H]2CCN(C(=O)C3CC3)C2)c1 | 0.014 µM | 20 µM |  |  |  |  |
| CN[C@@H](C)C/C=C/c1cncc(O[C@H]2CCN(C(=O)COC)C2)c1 | 0.0044 µM | 21 µM |  |  |  |  |
| CN[C@@H](C)C/C=C/c1cncc(O[C@H]2CCN(C(=O)c3ccco3)C2)c1 | 0.0012 µM | 72 µM |  |  |  |  |
| CCCOC(=O)N1CC[C@H](Oc2cncc(/C=C/C[C@H](C)NC)c2)C1 | 0.0077 µM |  |  | 25 µM |  |  |
| CN[C@@H](C)C/C=C/c1cncc(O[C@H]2CCN(C(=O)OCCOC)C2)c1 | 0.053 µM |  |  | 270 µM |  |  |
| CCNC(=O)N1CC[C@H](Oc2cncc(/C=C/C[C@H](C)NC)c2)C1 | 0.061 µM | 250 µM |  |  |  |  |
| CN[C@@H](C)C/C=C/c1cncc(O[C@@H]2CCN(C(=O)C3CC3)C2)c1 | 0.0051 µM | 83 µM |  |  |  |  |
| CN[C@@H](C)C/C=C/c1cncc(O[C@@H]2CCN(C(=O)COC)C2)c1 | 0.0091 µM | 55 µM |  |  |  |  |
| CN[C@@H](C)C/C=C/c1cncc(O[C@@H]2CCN(C(=O)c3ccco3)C2)c1 | 0.0047 µM | 50 µM |  |  |  |  |
| CCCOC(=O)N1CC[C@@H](Oc2cncc(/C=C/C[C@H](C)NC)c2)C1 | 0.0051 µM |  |  | 37 µM |  |  |
| CN[C@@H](C)C/C=C/c1cncc(O[C@@H]2CCN(C(=O)OCCOC)C2)c1 | 0.0066 µM |  |  | 48 µM |  |  |
| CCNC(=O)N1CC[C@@H](Oc2cncc(/C=C/C[C@H](C)NC)c2)C1 | 0.0099 µM | 140 µM |  |  |  |  |
| CN[C@@H](C)C/C=C/c1cncc(OC2CN(C(=O)COC)C2)c1 | 0.0049 µM |  |  | 42 µM |  |  |
| CN[C@@H](C)C/C=C/c1cncc(OC2CN(C(=O)c3ccco3)C2)c1 | 0.0028 µM |  |  | 20 µM |  |  |
| CCCOC(=O)N1CC(Oc2cncc(/C=C/C[C@H](C)NC)c2)C1 | 0.0039 µM | 44 µM |  |  |  |  |
| CN[C@@H](C)C/C=C/c1cncc(OC2CN(C(=O)OCCOC)C2)c1 | 0.0096 µM | 69 µM |  |  |  |  |
| CN[C@@H](C)C/C=C/c1cnc(Cl)c(O[C@H]2CCN(C(=O)C(C)C)C2)c1 | 0.013 µM | 27 µM | 16 µM |  | 29 µM |  |
| CN[C@@H](C)C/C=C/c1cncc(O[C@H]2CCN(C(=O)c3ccc(F)cc3F)C2)c1 | 0.029 µM | 3.3 µM | 80 µM |  | 47 µM |  |

| Compound | Ki (Human α4β2; read-out: Human α4β2 Ki) | Ki (Human Ganglion) | Ki (Rat Ganglion) | Ki (Human Ganglion; read-out: Human Ganglion Ki) | Ki (Human α7 nAChR) | Ki (Human α4β2) |
| --- | --- | --- | --- | --- | --- | --- |
| CN[C@@H](C)C/C=C/c1cnc(Cl)c(O[C@H]2CCN(C(=O)c3ccc(F)cc3F)C2)c1 | 0.022 µM |  |  |  | 23 µM |  |
| CN[C@@H](C)C/C=C/c1cncc(O[C@H]2CCN(C(=O)C(C)(C)C)C2)c1 | 0.0075 µM | 19 µM | 130 µM |  | 100 µM |  |
| CN[C@@H](C)C/C=C/c1cnc(Cl)c(O[C@H]2CCN(C(=O)C(C)(C)C)C2)c1 | 0.0067 µM | 4.8 µM | 11 µM |  | 39 µM |  |
| CN[C@@H](C)C/C=C/c1cncc(O[C@H]2CCN(C(=O)C3CCC3)C2)c1 | 0.018 µM | 27 µM | 17 µM |  | 66 µM |  |
| CN[C@@H](C)C/C=C/c1cncc(O[C@H]2CCN(C(=O)C3CCCC3)C2)c1 | 0.0078 µM | 13 µM | 6.9 µM |  | 85 µM |  |
| CN[C@@H](C)C/C=C/c1cnc(Cl)c(O[C@H]2CCN(C(=O)C3CCCC3)C2)c1 | 0.0021 µM | 7.6 µM | 55 µM |  | 160 µM |  |
| CN[C@@H](C)C/C=C/c1cncc(O[C@H]2CCN(C(=O)CC(C)(C)C)C2)c1 |  | 12 µM | 21 µM |  | 65 µM | 0.011 µM |
| CN[C@@H](C)C/C=C/c1cnc(Cl)c(O[C@H]2CCN(C(=O)CC(C)(C)C)C2)c1 | 0.0064 µM | 15 µM | 11 µM |  | 48 µM |  |
| CN[C@@H](C)C/C=C/c1cncc(O[C@H]2CCN(C(=O)CC(F)(F)F)C2)c1 | 0.003 µM | 5.4 µM | 6.8 µM |  | 68 µM |  |
| CN[C@@H](C)C/C=C/c1cncc(O[C@H]2CCN(C(=O)CC3CCCC3)C2)c1 | 0.0086 µM | 26 µM | 11 µM |  | 49 µM |  |
| CN[C@@H](C)C/C=C/c1cnc(Cl)c(O[C@H]2CCN(C(=O)CC3CCCC3)C2)c1 | 0.0061 µM | 2.5 µM | 4 µM |  | 36 µM |  |
| CN[C@@H](C)C/C=C/c1cnc(Cl)c(O[C@H]2CCN(C(=O)CCC(F)(F)F)C2)c1 |  | 25 µM | 31 µM |  | 13 µM | 0.0028 µM |
| CN[C@@H](C)C/C=C/c1cncc(O[C@@H]2CCN(C(=O)CC(C)(C)C)C2)c1 |  | 43 µM | 35 µM |  | 260 µM | 0.032 µM |
| CN[C@@H](C)C/C=C/c1cncc(O[C@@H]2CCN(C(=O)CC3CCCC3)C2)c1 | 0.011 µM | 5.8 µM | 170 µM |  | 53 µM |  |
| CN[C@@H](C)C/C=C/c1cncc(O[C@@H]2CCN(C(=O)CCC(F)(F)F)C2)c1 | 0.0043 µM | 19 µM | 43 µM |  | 170 µM |  |
| CN[C@@H](C)C/C=C/c1cncc(O[C@@H]2CCN(C(=O)c3ccc(F)cc3)C2)c1 | 0.0067 µM | 6.8 µM | 100 µM |  | 53 µM |  |
| CN[C@@H](C)C/C=C/c1cnc(Cl)c(O[C@@H]2CCN(C(=O)C(C)C)C2)c1 | 0.0015 µM |  |  |  | 36 µM |  |
| CN[C@@H](C)C/C=C/c1cnc(Cl)c(O[C@@H]2CCN(C(=O)c3ccc(F)cc3F)C2)c1 | 0.0038 µM | 6.6 µM | 22 µM |  | 22 µM |  |
| CN[C@@H](C)C/C=C/c1cnc(Cl)c(O[C@@H]2CCN(C(=O)C(C)(C)C)C2)c1 | 0.0087 µM | 26 µM | 1.1 µM |  | 34 µM |  |
| CN[C@@H](C)C/C=C/c1cnc(Cl)c(O[C@@H]2CCN(C(=O)C3CCC3)C2)c1 | 0.0015 µM |  |  |  | 45 µM |  |
| CN[C@@H](C)C/C=C/c1cnc(Cl)c(O[C@@H]2CCN(C(=O)C3CCCC3)C2)c1 | 0.0029 µM |  |  |  | 6.1 µM |  |
| CN[C@@H](C)C/C=C/c1cnc(Cl)c(O[C@@H]2CCN(C(=O)CC(C)(C)C)C2)c1 | 0.016 µM |  |  |  | 6.5 µM |  |
| CN[C@@H](C)C/C=C/c1cnc(Cl)c(O[C@@H]2CCN(C(=O)CC(F)(F)F)C2)c1 | 0.0012 µM | 18 µM | 8.5 µM |  | 300 µM |  |
| CN[C@@H](C)C/C=C/c1cnc(Cl)c(O[C@@H]2CCN(C(=O)CC3CCCC3)C2)c1 | 0.0075 µM |  |  |  | 30 µM |  |
| CN[C@@H](C)C/C=C/c1cncc(O[C@H]2CCN(C(=O)C(C)C)C2)c1 | 0.0061 µM | 20 µM | 5.7 µM |  | 36 µM |  |
| CN[C@@H](C)C/C=C/c1cnc(Cl)c(O[C@@H]2CCN(C(=O)c3ccc(F)cc3)C2)c1 | 0.0033 µM | 2 µM | 3.7 µM |  | 61 µM |  |

— patent US20150119378A1, “AZETIDINYLOXY-, PYRROLIDINYLOXY-, AND PIPERIDINYLOXY-SUBSTITUTED METANICOTINES AS NEURONAL NICOTINIC ACETYLCHOLINE RECEPTOR LIGANDS” (priority 2013, published 2015)
